{"source": "patent US5958416A", "about": "“Heat shock protein peptides and methods for modulating autoimmune central nervous system disease” (Regents of the University of Minnesota, priority 1995, dated 1999)", "key": {"[1]": {"tested_on": "IgG antibodies in CSF and sera of MS and OND patients", "assay": "Dot-blot analysis of patient CSF and sera for antibodies to CNP 173-184 peptide", "format": "binding, human", "procedure": "Cerebrospinal fluid (CSF) and sera from MS patients and controls were analyzed for antibodies to the peptide derived from CNP isoform 2 (corresponding to amino acids 173-184) using dot-blot analyses. Samples from nine MS patients and five patients with other neurologic diseases (OND) were analyzed. The CNP 173-184 peptide coupled to BSA was adsorbed onto nitrocellulose membranes. Control wells received BSA alone. Two dilutions of paired spinal fluids and sera were added to the wells and the amount of antibody binding determined using peroxidase labeled anti-human IgG and an enhanced chemiluminescent assay (ECL Western Blotting Kit; Amersham International, Plc., Buckinghamshire, England). Using the public domain program, Image 1.40 (available from NIH), the integrated densities of the dots in the CNP 173-184 peptide wells and BSA wells were determined."}, "[2]": {"tested_on": "experimental autoimmune encephalomyelitis (EAE)", "assay": "Modulation of EAE by pre-immunization with CNP 173-184 peptide-KLH (Example 4)", "format": "in vivo, Lewis rats"}, "[3]": {"tested_on": "Peripheral blood lymphocytes (PBL)", "format": "cell-based, human"}, "[4]": {"tested_on": "experimental autoimmune encephalomyelitis (EAE)", "assay": "Modulation of EAE by pre-immunization with HSP65 peptides not coupled to KLH (Example 9)", "format": "in vivo, Lewis rats", "conditions": "50 μg peptide not coupled to KLH, s.c., in IFA; 1 mg GPSC in CFA four weeks later"}, "[5]": {"conditions": "positive/tested, peptide coupled to BSA on nitrocellulose, data not shown"}, "[6]": {"conditions": "chi-square p, PBL, listed as #6"}}, "note": "“Also recorded” adds a separate entry of the source. Read-outs that look alike come from different tables or passages of the source. No end group written: not given here.", "data": [{"substance": "Leu-Lys-Lys-Leu-Lys-Pro-Gly-Leu-Glu-Lys-Asp-Phe (LKKLKPGLEKDF; also: coupled to BSA) [CNP 173-184 peptide, coupled to BSA in blots]", "values": [{"measurement": "Integrated densities in peptide wells relative to BSA wells", "setting": "[1]; MS CSF", "result": "approximately twofold higher"}, {"measurement": "p, MS versus OND patients with CSF antibodies to the peptide", "setting": "[1]; chi square analysis", "result": "< 0.03"}, {"measurement": "CSF samples with antibodies to the peptide, MS patients", "setting": "[1]; [5]", "result": "5/9"}, {"measurement": "CSF samples with antibodies to the peptide, OND patients", "setting": "[1]; [5]", "result": "0/5"}, {"measurement": "Number of MS patients with antibodies to the peptide in sera", "setting": "[1]; sera", "result": 3}, {"measurement": "Number of OND patients with antibodies to the peptide in sera", "setting": "[1]; sera", "result": 1}, {"measurement": "EAE after GPSC challenge, pre-immunization in IFA", "setting": "[2]; 50 μg s.c. in IFA, GPSC in CFA five to six weeks later", "result": "suppression of EAE"}, {"measurement": "p, difference in EAE severity between peptide-IFA and KLH-IFA pre-immunized rats", "setting": "[2]; day 13 post GPSC-CFA immunization", "result": "< 0.02"}]}, {"substance": "lys-gly-tyr-ile-ser-gly-tyr-phe-val-thr-asp-ala-glu-arg-gln (KGYISGYFVTDAERQ) [Peptide #6]", "values": [{"measurement": "T cell proliferative response elicited by the peptide", "setting": "[3]; PBL from MS and OND patients, greater than two-fold above background considered significant", "result": "elicited specific T cell proliferative responses in some MS patients compared with OND patients"}, {"measurement": "Correlation of responsiveness to the peptide with responsiveness to M. tuberculosis, OND patients", "setting": "[3]; Pearson correlation, PBL", "result": "No significant correlations"}, {"measurement": "p, correlation of responsiveness to the peptide with responsiveness to M. tuberculosis, DR2+ MS females", "setting": "[3]; Pearson correlation, PBL", "result": "< 0.02"}, {"measurement": "p, correlation of responsiveness to the peptide with responsiveness to M. tuberculosis, DR2- MS males", "setting": "[3]; Pearson correlation, PBL", "result": "< 0.01"}, {"measurement": "p, correlation of responsiveness to the peptide with responsiveness to M. tuberculosis, all MS patients", "setting": "[3]; Pearson correlation, PBL", "result": "< 0.01"}, {"measurement": "Difference in frequency of proliferative response, Group A greater than Group B: MS F vs MS M", "setting": "[3]; chi-square p, PBL", "result": "greater response"}, {"measurement": "Difference in frequency of proliferative response, Group A greater than Group B: MS F vs OND M", "setting": "[3]; chi-square p, PBL", "result": "greater response"}, {"measurement": "Difference in frequency of proliferative response, Group A greater than Group B: MS F, DR2- VS MS M, DR2-", "setting": "[3]; chi-square p, PBL", "result": "responded more strongly"}, {"measurement": "Difference in frequency of proliferative response, Group A greater than Group B: MS F, DR2- vs MS F, DR2+", "setting": "[3]; chi-square p, PBL", "result": "N.S."}, {"measurement": "Difference in frequency of proliferative response, Group A greater than Group B: MS M, DR2+ VS MS F, DR2+", "setting": "[3]; chi-square p, PBL", "result": "N.S."}, {"measurement": "Difference in frequency of proliferative response, Group A greater than Group B: MS F vs MS M", "setting": "[3]; [6]", "result": "< 0.025"}, {"measurement": "Difference in frequency of proliferative response, Group A greater than Group B: MS F vs OND M", "setting": "[3]; [6]", "result": "< 0.0005"}, {"measurement": "Difference in frequency of proliferative response, Group A greater than Group B: MS F, DR2- VS MS M, DR2-", "setting": "[3]; [6]", "result": "< 0.05"}, {"measurement": "Protection against EAE after pre-immunization with the peptide", "setting": "[4]", "result": "did protect against or decrease the symptoms of EAE; also recorded: significantly decreases both the incidence and severity of EAE; also recorded: protects rats against EAE"}]}]}
